# Measurements from US20230129866A1 (PureTech LYT 100, Inc., priority 2020, published 2023).
# Legend:
# [1] = human, in vivo
# Description: (§1) Up to 5 dosing cohorts are planned in Part 1.
# (§2) Additional cohorts and intermediate doses may be selected in lieu of predefined doses as noted and in accordance with safety and tolerability responses, but doses will not exceed 1000 mg BID or a total daily dose of 2000 mg.
# (§3) A standardised lunch will be served ≥4 h post breakfast and ≥4 h prior to dinner. An evening snack will be served ≥3 h following evening study medication administration. No additional fluids will be allowed during the 1 h pre- and post-doses. On Day 6, subjects will replicate mealtimes as scheduled on Day 1-5.
# (§4) Plasma PK parameters (non-compartmental or compartmental analysis as appropriate) will include, but are not limited to: • Following single dose: Tmax, tlag, Cmax, AUC0-4, AUC0-last, t1/2, AUC0-inf, lambda z, %AUCext, CL/F, Vz/F, Cmax/D, AUC0-last/D, AUC0-inf/D and MRT (D is dose) • After repeated doses: Ctrough, Ctrough/D • Following repeated doses on last day: Tmax, Cmax, Cavg, tlag, t1/2, AUC0-4, AUC0-last; AUC0-inf, lambda z, %AUCext, CLss/F, Vzss/F, MRT, PTF, Rac(AUC), Rac(Cmax), Cmax/D, AUClast/D, AUC0-inf/D and Rae (accumulation ratio).
# [2] = Phase 1 multiple ascending dose (MAD) study Part 1, healthy volunteers (PK and safety); details: 100 to 1000 mg BID, 5 days
# Description: as §1, §2, §3, §4
# LPS-induced plasma TNFα = experiment: LPS-induced plasma TNF-α after oral pretreatment in rats; format: in vivo, Sprague-Dawley rats; details: Mean ± St. Dev., n = 6-8; for Plasma TNFα concentrations 4 hours after LPS: vehicle 693 ± 553; for Plasma TNFα concentrations 1.5 hours after LPS: vehicle 75389 ± 29107
# Description: LPS was diluted with sterile saline to […] and sonicated at 40° C. for 20 minutes to generate a stock solution and stored at 4° C. Each day of use, the stock solution was further diluted to 0.03 mg/mL in sterile saline.
# Male Sprague-Dawley rats with indwelling femoral and jugular venous catheters (n=6-8 per dose and test article group) were used in this study. […] Sixty minutes after the oral dose, 0.03 mg/kg of LPS in 1 mL/kg saline was infused into the jugular vein.
# Blood samples were collected from the femoral vein into heparin-coated syringes 15 minutes prior to the LPS infusion (45 minutes after oral doses of test article), 90 minutes after the LPS infusion and 4 hours after the LPS infusion. Plasma was prepared by centrifugation of the blood samples at 14,000 rpm for 10 minutes. Plasma samples were stored at −70 ° C. until analysis.
# L929 cells [3] = experiment: Survival of L929 cells (MTT); format: cell-based; details: 500 μM, TGFb 5 ng/ml, 72 hrs, FIG. 4A
# Description: Five thousand L929 cells were plated in completed DMEN and incubated until confluency for 3 days. Medium was removed and complete DMEM containg Prolin (20 μg/ml) and ascorbic acid (10 μM) was added. […] 100 μL of medium was removed, 20 μL MTT solution was added for 4 hrs, then 100 μl of DMSO was added, and absorbance of developed dark pink color was determined at […].
# L929 cells [4] = experiment: TGF-induced collagen synthesis in L929 cells, 6-wells (SIRCOL); format: cell-based; details: 72 hrs, FIG. 4B
# Description: 100,000 L929 cells were plated in complete DMEN and incubated until confluency for 3 days. Medium was removed and complete DMEM containg Prolin ([…]) and ascorbic acid (10 μM) was added. […] Cells were further incubated for 72 hrs. Supernatant was removed, cells were washed with cold PBS, 1 ml SIRCOL reagent was added onto the cells and cells were scraped off, samples were shaken for 5 h.at RT, centrifuged at 10.000 rpm for 5 min, supernatant was removed, pellet was dissolved in 0.5 M acetic acid to remove unbound dye, and re-centrifuged at 10.000 rpm for 5 min, supernatant was removed and final pelet was dissolved in 1 ml 0.5M NaOH, shaken at RT for 5 h, 100 μl of resulted solution was placed in 96-well and O.D was determined at 600.
# NASH mice = experiment: Streptozotocin/high fat diet NASH mouse model: Sirius-red fibrosis area and NAFLD Activity Score; format: in vivo; details: n = 8
# Description: Non-alcoholic steatohepatitis (NASH) is characterized by lobular inflammation, hepatocyte ballooning and degeneration progressing to liver fibrosis. […] In addition, nine non-NASH mice were fed with a normal diet and monitored.
# While LYT-100 hepatocyte ballooning was similar to Vehicle, scores were lower for lobular inflammation and steatosis. (Table 6 and 7).
# L929 cells [5] = experiment: TGF-induced soluble collagen synthesis in L929 cells (ELISA); format: cell-based; details: 500 μM, 72 hrs, FIG. 4D
# Description: Five thousand L929 cells were plated in complete DMEN and incubated until confluency for 3 days.
# [6] = Phase 1 food effect study Part 2 (Cohort 5), single 500 mg dose fed vs fasted; format: in vivo, human; details: LYT-100 @500 mg single dose
# Description: The comparison will be based on Day 1, Day 2 and Day 3 PK plasma samples after the first dose of study drug on Day 1 under fast and fed conditions of Part 2.
# Subjects will be admitted to the CRU on Day-1 and will fast overnight for at least 10 h.
# [7] = system: ICAM-1; vascular hyperpermeability; TGF-β and downstream signaling; experiment: Other studies for pirfenidone mechanisms in acute and chronic interstitial lung diseases
# [8] = system: Primary Mouse Lung Fibroblasts (PMLF); experiment: Survival and TGF-β-induced proliferation of Primary Mouse Lung Fibroblasts (MTT); format: cell-based; details: 500 μM, 72 hrs, FIG. 3A
# Description: Primary Mouse lung fibroblast were prepared as follows. One lung was removed from 2 months old male BaIbC Mouse, perfused with sterile PBS, minced and incubated in 2 ml of serum free Dulbecco's Modified Eagle's Medium (DMEM) containing 100 μg/ml of collagenase I for one hour at 37° C. Each sample was centrifuged at 1500 r.p.m (revolution per minute) for 5 minutes, washed three times with PBS and the final cellular pellet was resuspended in DMEM supplemented with 10% serum and Pen/Strep, and incubated in 150 mm plates at 37 °C with 80% humidity and […]. The growth medium was removed and fresh medium was added every day for 10 days.
# At the end of 10-day incubation period above, lung fibroblasts were confluent. […] One hundred μL of the growth medium was removed and 20 μL of MTT stock solution (prepared in PBS at 5.5 mg/ml concentration) was added and cells were incubated for 4 hours, then 100 μl of DMSO was added, and absorbance of developed color was monitored at 540-690 nm.
# [9] = In vitro comparative mass balance and metabolite studies in liver microsomes; format: in vitro ADME, human, rat, dog, mouse, monkey
# Description: Both LYT-100 and pirfenidone share a common major metabolite.
# [10] = 30 mg/kg oral pretreatment 1 hour prior to LPS injection
# [11] = 100 mg/kg oral pretreatment 1 hour prior to LPS injection
# [12] = 300 mg/kg oral pretreatment 1 hour prior to LPS injection
compound,measurement,setting,value
"[2H]C([2H])([2H])c1ccc(=O)n(-c2ccccc2)c1 [LYT-100, 5-(methyl-d3)-1-phenylpyridin-2-(1H)-one]",Dose dependence of AUC96-108 across all dose Cohorts,[1],linear dose proportionality
same,Dose limiting toxicities,[1],no dose limiting toxicities observed
same,Grading of adverse events,[1],mild and transient
same,AEs considered possibly related to treatment,[1]; 5 days,33
same,"Most common AE, headache: subjects",[1]; 5 days,25%
same,Subjects who experienced adverse events,[1]; 5 days,33 subjects
same,Total adverse events (AEs),[1]; 5 days,72
same,Maximally tolerated dose,[2],no maximally tolerated dose was reached
same,Plasma TNFα concentrations 4 hours after LPS,LPS-induced plasma TNFα; [10],274 ± 95 pg/mL
same,Plasma TNFα concentrations 1.5 hours after LPS,LPS-induced plasma TNFα; [10],46382 ± 23254 pg/mL
same,Plasma TNFα concentrations 4 hours after LPS,LPS-induced plasma TNFα; [11],129 ± 65 pg/mL
same,Plasma TNFα concentrations 1.5 hours after LPS,LPS-induced plasma TNFα; [11],6403 ± 4812 pg/mL
same,Plasma TNFα concentrations 4 hours after LPS,LPS-induced plasma TNFα; [12],79 ± 46 pg/mL
same,Plasma TNFα concentrations 1.5 hours after LPS,LPS-induced plasma TNFα; [12],3162 ± 2668 pg/mL
same,Effect on survival of L929 cells,L929 cells [3],does not affect survival
same,Effect on TGF-induced collagen synthesis,L929 cells [4]; 500 μM 1 hour prior to TGF-β 5 ng/ml,inhibits
same,Effect on collagen synthesis in the absence of added TGF-β,L929 cells [4]; 500 μM,significantly inhibits
same,Steatosis score 0: number of animals,"NASH mice; NAS component, score 0 = <5%, LYT-100 30 mg/kg twice daily",4
same,Steatosis score 1: number of animals,"NASH mice; NAS component, score 1 = 5-33%, LYT-100 30 mg/kg twice daily",3
same,Lobular Inflammation score 1: number of animals,"NASH mice; NAS component, score 1 = <2 foci/200x, LYT-100 30 mg/kg twice daily",5
same,Lobular Inflammation score 2: number of animals,"NASH mice; NAS component, score 2 = 2-4 foci/200x, LYT-100 30 mg/kg twice daily",3
same,Steatosis score 2: number of animals,"NASH mice; NAS component, score 2 = >33%-66%, LYT-100 30 mg/kg twice daily",1
same,Hepatocyte ballooning score 2: number of animals,"NASH mice; NAS component, score 2 = Many cells/prominent ballooning, LYT-100 30 mg/kg twice daily",8
same,Fibrosis Area (%) (mean ± SD),"NASH mice; Sirius-red stained liver sections, LYT-100 30 mg/kg orally twice daily from 6-9 weeks of age, p < 0.01 vs Vehicle (1.02 ± 0.20)",0.64 ± 0.31 %
same,Effect on soluble collagen levels in the absence of TGF-β-induction,L929 cells [5],signficantly reduced
same,Effect on TGF-β-induced soluble collagen levels,L929 cells [5]; TGF-β 5 ng/ml,significantly inhibits
same,"AUC, % Change Fed vs Fasted",[6],−19%
same,"Cmax, % Change Fed vs Fasted",[6],−23%
same,"Tmax, % Change Fed vs Fasted",[6],+25%
same,Effect on ICAM-1,[7],downregulates
same,Effect on TGF-β and downstream signaling,[7],suppresses
same,Effect on vascular hyperpermeability,[7],reduces
same,Effect on survival of PMLF alone,[8],did not affect the survival
same,Novel metabolites through deuteration,"[9]; human, rat, dog, mouse, and monkey liver microsomes",did not introduce novel
same,Rate of metabolism compared with pirfenidone,[9]; liver microsomes,occurred more slowly
